Data set [1] is described as follows: Stability of prasugrel in 30% w/v SBE6.5-β-CD or HP4.3-β-CD at pH 4 (HPLC). Type of data set: physicochemical.
Data set [2] is described as follows: Phase solubility of prasugrel in aqueous SBE6.5-β-CD at pH 7.4. Format: physicochemical. The conditions noted are these: for solubility: aqueous solution, pH 7.4, aqueous with cosolvent or surfactant or cyclodextrin, thermodynamic from solid, Prasugrel Solubility. The text has this:
The results of the phase solubility study at pH 7.4 are also depicted graphically in FIG. 2.

The nature of data set [3]: Phase solubility of prasugrel in aqueous SBE6.5-β-CD or HP4.3-β-CD at pH 4. The conditions noted are these: for solubility: thermodynamic from solid. Type of data set: physicochemical. The text has this:
The results of the phase solubility study at pH 4 are also depicted graphically in FIG. 3. […] Note that the data obtained for the 10% w/v cyclodextrin derivatives was not included in the best-fit line that appears in FIG. 3.

Data set [4] in a line: Stability of prasugrel in 30% w/v SBE6.5-β-CD at pH 3, 4 and 6 (HPLC). Type of data set: physicochemical. Conditions: for decrease in prasugrel concentration: 30% w/v SBE6.5-β-CD. How it is done:
The solutions were sampled at 0, 2, 7 and 53 hours. […] The data obtained from the stability study is provided graphically in FIG. 5.

The test system of the next data set is platelet. Conditions: healthy subjects; cited from earlier work.
In another data set the test system is platelet aggregation. The conditions noted are these: after treatment is stopped; cited from earlier work.
For data set [5] the following is noted: cited from earlier work.

Results on two compounds are retold here after patent US10111863B2 (CYDEX PHARMACEUTICALS, INC., priority 2009, dated 2018).

Molecules are shown by their SMILES. Structures can show the parent of a compound that is named as a salt. Where two headings read alike, the source gives them in different places.

Turning to `CC(=O)Oc1cc2c(s1)CCN(C(C(=O)C1CC1)c1ccccc1F)C2` (racemic) [Prasugrel, 5-[(1RS)-2-cyclopropyl-1-(2-fluorophenyl)-2-oxoethyl]-4,5,6,7-tetrahydrothieno[3,2-c]pyridin-2-yl acetate], the “stability in aqueous solution containing a sulfoalkyl ether-β-cyclodextrin versus pH” value in data set [1] is “more stable at pH 4 or less”; in data set [4] (pH 3, 4 and 6 compared) it was “more stable at pH 4 or less”. Also, the “stability in SBE6.5-β-CD versus HP4.3-β-CD” value in data set [1] (30% w/v solutions, pH 4, 0.1 M phosphate buffer, FIG. 6) was “nearly identical stability”. The “Prasugrel Solubility” value in data set [2] (SBE6.5-β-CD 5% w/v) was found to be 0.0054% w/v; in data set [2] (SBE6.5-β-CD 10% w/v), 0.0124% w/v; in data set [2] (SBE6.5-β-CD 20% w/v), 0.0252% w/v; in data set [2] (SBE6.5-β-CD 30% w/v), 0.0379% w/v. Further, the “prasugrel solubility as a function of the derivatized cyclodextrin concentration” value in data set [2] (SBE6.5-β-CD, FIG. 2) is recorded as “increased linearly”; in data set [3] (both HP4.3-β-CD and SBE6.5-β-CD, FIG. 3), “increased linearly”. Moreover, the solubility in data set [2] (SBE6.5-β-CD 5% w/v) is 54 µg/mL; in data set [2] (SBE6.5-β-CD 10% w/v), 124 µg/mL; in data set [2] (SBE6.5-β-CD 20% w/v), 252 µg/mL; in data set [2] (SBE6.5-β-CD 30% w/v) it was 379 µg/mL; in data set [2] (SBE6.5-β-CD 40% w/v) it was 515 µg/mL; in data set [3] (aqueous HP4.3-β-CD solution, pH 4, aqueous with cosolvent or surfactant or cyclodextrin, Prasugrel Solubility w/ HP4.3-β-CD, HP4.3-β-CD 30% w/v), 645 µg/mL. Further, the solubility in data set [3] (aqueous SBE6.5-β-CD solution, pH 4, aqueous with cosolvent or surfactant or cyclodextrin, Prasugrel Solubility w/ SBE6.5-β-CD, SBE6.5-β-CD 30% w/v) amounted to 664 µg/mL; in data set [3] (aqueous solution, pH 4, aqueous buffer, Prasugrel Solubility w/ HP4.3-β-CD, cyclodextrin derivative 0% w/v), 206 µg/mL; in data set [3] (aqueous solution, pH 4, aqueous buffer, Prasugrel Solubility w/ SBE6.5-β-CD, cyclodextrin derivative 0% w/v) it was 206 µg/mL; in data set [3] (aqueous solution, pH 4, aqueous with cosolvent or surfactant or cyclodextrin, Prasugrel Solubility w/ HP4.3-β-CD, HP4.3-β-CD 5% w/v), 256 µg/mL; in data set [3] (aqueous solution, pH 4, aqueous with cosolvent or surfactant or cyclodextrin, Prasugrel Solubility w/ HP4.3-β-CD, HP4.3-β-CD 10% w/v) it was 474 µg/mL; in data set [3] (aqueous solution, pH 4, aqueous with cosolvent or surfactant or cyclodextrin, Prasugrel Solubility w/ HP4.3-β-CD, HP4.3-β-CD 20% w/v) it was 524 µg/mL. Moreover, the solubility in data set [3] (aqueous solution, pH 4, aqueous with cosolvent or surfactant or cyclodextrin, Prasugrel Solubility w/ HP4.3-β-CD, HP4.3-β-CD 40% w/v) was found to be 875 µg/mL; in data set [3] (aqueous solution, pH 4, aqueous with cosolvent or surfactant or cyclodextrin, Prasugrel Solubility w/ SBE6.5-β-CD, SBE6.5-β-CD 5% w/v) it was 268 µg/mL; in data set [3] (aqueous solution, pH 4, aqueous with cosolvent or surfactant or cyclodextrin, Prasugrel Solubility w/ SBE6.5-β-CD, SBE6.5-β-CD 10% w/v) it was 736 µg/mL; in data set [3] (aqueous solution, pH 4, aqueous with cosolvent or surfactant or cyclodextrin, Prasugrel Solubility w/ SBE6.5-β-CD, SBE6.5-β-CD 20% w/v) it was 580 µg/mL; in data set [3] (aqueous solution, pH 4, aqueous with cosolvent or surfactant or cyclodextrin, Prasugrel Solubility w/ SBE6.5-β-CD, SBE6.5-β-CD 40% w/v) it was 927 µg/mL. For the same compound, the “decrease in prasugrel concentration” value was “less than 10%” in data set [4] (pH 3, 0.1 M phosphate buffer, after 30 hours); “less than 20%” in data set [4] (pH 3, 0.1 M phosphate buffer, after about 55 hours); “less than 10%” in data set [4] (pH 4, 0.1 M phosphate buffer, after 30 hours); “less than 20%” in data set [4] (pH 4, 0.1 M phosphate buffer, after about 55 hours); “about 20%” in data set [4] (pH 6, 0.1 M phosphate buffer, after 30 hours); “about 36%” in data set [4] (pH 6, 0.1 M phosphate buffer, after about 55 hours). The “platelet inhibition and response compared to clopidogrel” value with platelet is “greater platelet inhibition and more consistent response”. The “time to return to baseline levels of platelet aggregation” value in the data set on platelet aggregation is 7 to 10 days.
Take `CC(=O)Oc1cc2c(s1)CCN(C(C(=O)C1CC1)c1ccccc1F)C2` (racemic) [Prasugrel hydrochloride]: the pKa value in data set [5] is on record as 5.1. In addition, the solubility result in data set [5] (pH 1-4) is given as “soluble to slightly soluble”; in data set [5] (pH 5) it was “very slightly soluble”; in data set [5] (pH 6-7), “practically insoluble”.
